# Columns and labels:
# [1] = tested on: patients with advanced pancreatic cancer; conditions: cited from earlier work
# [2] = human, in vivo, iv, 600 mg/m^2, 1 h
# Experimental: (§1) Blood samples were taken following drug administration and the plasma extracted immediately and stored. Blood samples for determination of Cilengitide were collected at the following time points: day 1 immediately before Cilengitide infusion and after 1 h (end of infusion); day 8 immediately before Cilengitide infusion and after 1 h (end of infusion) and 0.5 h, 1 h, 2 h, 3 h, 4 h, 7 h, and 11 h after end of Cilengitide infusion. Blood samples for gemcitabine analysis were collected in both treatment arms on day 1 and day 8 at the following time points: 0 h (immediately before start of infusion of gemcitabine), 0.5 h (at the end of infusion of gemcitabine) and 0.5 h, 1.5 h, 2.5 h, and 3.5 h after end of gemcitabine infusion.
# (§2) Analysis was carried out at a single laboratory using high-performance liquid chromatography-tandem mass spectrometry. Calculation of pharmacokinetic parameters was performed according to non-compartmental standard methods. Pharmacokinetic analyses included maximum plasma concentration (Cmax), time to maximum concentration (tmax), area under the curve from time zero to the last sampling time (AUC0-t), area under the curve from time zero to infinity (AUC0-∝), apparent elimination rate constant (λz), apparent terminal elimination half-life associated with the negative terminal slope (t1/2), total body clearance of drug from plasma (CL) and the volume of distribution at steady state (Vss). The lower limits of quantification for Cilengitide and gemcitabine in plasma were 1 ng/mL and 50 ng/mL, respectively. For the plasma quality control samples of Cilengitide the interbatch coefficient of variation (CV) was 3.4% to 9.2% and the interbatch accuracy was 97% to 104%. For the plasma quality control samples of gemcitabine, the interbatch CV was 5.6% to 9.4% and the interbatch accuracy was 93.5% to 104%.
# clinical = conditions: human, in vivo, iv
# Experimental: as §1, §2
# [3] = tested on: patients with advanced solid tumors; conditions: in vivo; cited from earlier work
# [4] = ancillary pharmacokinetic study, plasma, HPLC-MS/MS; conditions: for Tmax: human, iv
# Experimental: as §1, §2
# [5] = tested on: patients with advanced unresectable pancreatic cancer; experiment: randomized phase II trial: survival, PFS and tumor response; format: in vivo, human
# Text: Patients with advanced unresectable pancreatic cancer were enrolled. Eligibility criteria included age ≥ 18 years, diagnosed (histologically or cytologically) with or without metastases, at least one bidimensionally measurable lesion, a Karnofsky performance score of ≥ 70%, a life expectancy of at least 12 weeks, and written informed consent. The main exclusion criteria were prior chemotherapy and/or major surgery related to pancreatic cancer before study entry with the exception of palliative surgery, brain metastases, a pancreatic tumor of neuroendocrine origin, second primary malignancies, inadequate liver and renal functions, inadequate bone marrow reserve, a history of cerebrovascular accident or repeated transient ischemic attacks and cardiac or cardiovascular abnormality.
# This was a multi-national, open-label, controlled, randomized, parallel-group, phase II pilot study, conducted in 20 centers in 7 countries (Austria, Belgium, France, Germany, Spain, Switzerland, and the United Kingdom). Eligible patients were randomized to receive either Cilengitide and gemcitabine or gemcitabine alone. The Pocock minimization method [23] was applied for randomization using factors for center and for locally advanced or metastatic disease following the definition according to the tumor-node-metastasis (TNM) classification and histopathological grading system of the International Union Against Cancer. Cilengitide (600 mg/m^2) was administered twice weekly as a 1 hour intravenous (IV) infusion for 4 consecutive weeks (1 cycle). Gemcitabine (1000 mg/m^2) was administered as a weekly 30-minute IV infusion once weekly for 3 weeks followed by 1 week of rest (1 cycle). In the drug combination group, on the days on which both drugs were given, Cilengitide was given immediately prior to gemcitabine. The planned treatment period was 24 weeks (6 cycles), but patients responding to either regimen could continue treatment up to a maximum of 48 weeks.
# Overall survival was defined as the time from the start of study drug administration to death. PFS was defined as the time interval between the date of randomization and the date of disease progression or death whichever came first. If neither was observed the patient was censored at the date of the last follow-up examination. A computed tomography or magnetic resonance imaging scan of target lesions was performed at baseline, weeks 9 and 17, and at the end of treatment to assess tumor size and treatment response. Unscheduled scans were conducted to confirm disease progression. Tumor response was assessed according to the amended World Health Organization (WHO) criteria for response based on the size of target lesions.
# The sample size of the trial was determined by clinical feasibility. No inferential statistical comparison of the two treatment arms was planned. The aim was to obtain information on safety and feasibility as well as trends in efficacy by determination of overall survival as primary and progression-free survival (PFS), response rate, quality of life (QoL), effects on biological markers of disease (CA 19.9) and angiogenesis (vascular endothelial growth factor and basic fibroblast growth factor) and safety as secondary endpoints. Confidence intervals were presented at the 95%-confidence level. The data of this phase II pilot- and feasibility study, are presented in a descriptive manner. The primary analysis of survival (time to death from any cause) was conducted using the intention-to-treat (ITT) population. An additional supportive analysis using the Per Protocol (PP) population was conducted. The secondary objectives were to determine PFS, response rates, safety and tolerability, QoL, biological response, and pharmacokinetics.
# [6] = tested on: patients with advanced unresectable pancreatic cancer; experiment: randomized phase II trial: safety, adverse events (NCI-CTC); format: in vivo, human
# Text: This was a multi-national, open-label, controlled, randomized, parallel-group, phase II pilot study, conducted in 20 centers in 7 countries (Austria, Belgium, France, Germany, Spain, Switzerland, and the United Kingdom). Eligible patients were randomized to receive either Cilengitide and gemcitabine or gemcitabine alone. The Pocock minimization method was applied for randomization using factors for center and for locally advanced or metastatic disease following the definition according to the tumor-node-metastasis (TNM) classification and histopathological grading system of the International Union Against Cancer. Cilengitide (600 mg/m^2) was administered twice weekly as a 1 hour intravenous (IV) infusion for 4 consecutive weeks (1 cycle). Gemcitabine (1000 mg/m^2) was administered as a weekly 30-minute IV infusion once weekly for 3 weeks followed by 1 week of rest (1 cycle). In the drug combination group, on the days on which both drugs were given, Cilengitide was given immediately prior to gemcitabine. The planned treatment period was 24 weeks (6 cycles), but patients responding to either regimen could continue treatment up to a maximum of 48 weeks. […] Any change was based on patient hematological and/or non-hematological parameters on the intended day of treatment as well as the maximum drug-induced toxicity grade observed between dosing. The before treatment and 4-weekly evaluations included a physical examination and laboratory investigations (blood counts, biochemical profile, urinalysis). Assessments were also made of Karnofsky performance status and vital signs. Before the start of the study, at the end of the study and when clinically indicated during the study chest X-rays and 12-lead electrocardiograms were performed. Adverse events were monitored and evaluated for frequency, duration, severity (mild, moderate, severe, life-threatening) and possible relationship to study medication. Toxicity was assessed according to NCI-CTC Version 2. All adverse events whether reported by a patient or observed by an investigator or study nurse were documented, regardless of whether they were considered to be drug-related, together with any medical intervention.
# [7] = tested on: patients with advanced unresectable pancreatic cancer; experiment: randomized phase II trial: quality of life (EORTC QLQ-C30); format: in vivo, human; conditions: QLQ-C30, change from baseline
# Experimental: Quality of life (QoL) was assessed using the European Organization for Research and Treatment of Cancer (EORTC) QoL core questionnaire (QLQ-C30, Version 3.0) in conjunction with the EORTC Pancreatic Module ([…] is a self-administered 30-item questionnaire and incorporates 5 functional scales, 3 symptom scales and a global health/QoL scale. EORTC-PAN26 is a 26-item questionnaire addressing pancreas cancer specific symptoms and the side effects from conventional therapy. Assessments were made at weeks 1, 9, 17, 25 and at the end of treatment. QoL data were analyzed descriptively due to the small number of patients enrolled in the study.
# [8] = in combination with gemcitabine
# [9] = Cilengitide 600 mg/m^2 1 h IV infusion with gemcitabine, plasma, n 10
# [10] = WHO criteria, ITT, listed as gemcitabine alone
# [11] = all adverse events during the treatment period
# [12] = onset during the treatment phase
# [13] = possibly related to treatment, listed as gemcitabine alone
molecule,measurement,setting,value
"bevacizumab: anti-VEGF-agent, given in combination with gemcitabine",median overall survival time,[1]; [8],"8,8 months"
same,response rate,[1]; [8],21%
"CC(C)[C@H]1C(=O)N[C@@H](CCCN=C(N)N)C(=O)NCC(=O)N[C@@H](CC(=O)O)C(=O)N[C@H](Cc2ccccc2)C(=O)N1C [Cilengitide, Cyclo-l-Arg-l-Asp-d-Phe-N (Me) l-Val]",mean concentration at the end of infusion,[2],62.182 ± 12.345 µg/mL
same,level at 1 h,"clinical; 600 mg/m^2, mean concentration at the end of infusion",75.4 ± 31.5 µg/mL
same,half-life,"clinical; t1/2, Geomean",~3 h
same,dose limiting toxicity,[3],no dose limiting toxicity was recorded
same,"CL, Geomean",[4]; [9],54.2 mL/min/m^2
same,"Vss, Geomean",[4]; [9],12100 mL/m^2
same,Tmax,[4]; plasma,1 h
"Nc1ccn([C@@H]2O[C@H](CO)[C@@H](O)C2(F)F)c(=O)n1 [Gemcitabine, gemcitabine]",1-year survival (95% CI),[5]; ITT population,0.24 (0.11–0.37)
same,Median PFS (95% CI),[5]; ITT population,115 (62–178) days
same,Median survival (95% CI),[5]; ITT population,234 (137–290) days
same,Number of deaths,[5]; ITT population,37
same,median PFS time,[5]; ITT population,3.8 months
same,median overall survival,[5]; ITT population,7.7 months
same,"Complete response, % of patients","[5]; WHO criteria, ITT",2%
same,"Complete response, No. patients","[5]; WHO criteria, ITT",1
same,"Partial response, % of patients","[5]; WHO criteria, ITT",12%
same,"Partial response, No. patients","[5]; WHO criteria, ITT",5
same,"Progressive disease, % of patients","[5]; WHO criteria, ITT",23%
same,"Progressive disease, No. patients","[5]; WHO criteria, ITT",10
same,"Response rate, % of patients","[5]; WHO criteria, ITT",14%
same,"Response rate, No. patients","[5]; WHO criteria, ITT",6
same,"Stable disease, % of patients","[5]; WHO criteria, ITT",42%
same,"Stable disease, No. patients","[5]; WHO criteria, ITT",18
same,"Tumor growth control rate, % of patients","[5]; WHO criteria, ITT",56%
same,"Tumor growth control, No. patients","[5]; WHO criteria, ITT",24
same,"Response rate, % of patients",[5]; [10],14%
same,"Tumor growth control rate, % of patients",[5]; [10],56%
same,"Condition reduced, number of events","[6]; SAE, Grade 3, relationship not assessable, considered possibly related",1
same,Gamma-glutamyl transferase elevations (% of patients),[6]; [11],29%
same,Nausea (% of patients),[6]; [11],50%
same,Shivering (% of patients),[6]; [11],7%
same,ascites (% of patients),[6]; [11],26%
same,cholestasis (% of patients),[6]; [11],26%
same,dyspepsia (% of patients),[6]; [11],29%
same,dyspnea (% of patients),[6]; [11],14%
same,fever (% of patients),[6]; [11],24%
same,jaundice (% of patients),[6]; [11],19%
same,urinary tract infection (% of patients),[6]; [11],21%
same,number of possibly related serious adverse events,[6]; in vivo,8
same,"patients with possibly related adverse events, %",[6]; in vivo,76%
same,"patients with possibly related adverse events, number",[6]; in vivo,32
same,total number of possibly related adverse events,[6]; in vivo,278
same,"AE, Grade 1/2, No. of events",[6]; [12],617
same,"AE, Grade 1/2, Pts (%)",[6]; [12],17%
same,"AE, Grade 3/4, No. of events",[6]; [12],138
same,"AE, Grade 3/4, Pts (%)",[6]; [12],83%
same,"AE, all grades, No. of events",[6]; [12],755
same,"AE, all grades, Pts (%)",[6]; [12],100%
same,"SAE, all, No. of events",[6]; [12],64
same,"SAE, all, Pts (%)",[6]; [12],71%
same,"SAE, all, Pts (%)","[6]; onset during the treatment phase, listed as gemcitabine alone",71%
same,"Epistaxis, number of events","[6]; possibly related SAE, Grade 2",1
same,"Exanthema, number of events","[6]; possibly related SAE, Grade 2",1
same,"Pneumonia, number of events","[6]; possibly related SAE, Grade 2",1
same,"Anorexia, number of events","[6]; possibly related SAE, Grade 3",1
same,"Depression, number of events","[6]; possibly related SAE, Grade 3",1
same,"Dyspnea, number of events","[6]; possibly related SAE, Grade 3",2
same,Anemia (% of patients),[6]; possibly related to treatment,26%
same,Anorexia (% of patients),[6]; possibly related to treatment,14%
same,Asthenia (% of patients),[6]; possibly related to treatment,10%
same,Edema (% of patients),[6]; possibly related to treatment,5%
same,Fatigue (% of patients),[6]; possibly related to treatment,19%
same,Hair changes (% of patients),[6]; possibly related to treatment,12%
same,Headache (% of patients),[6]; possibly related to treatment,0%
same,Leukopenia (% of patients),[6]; possibly related to treatment,26%
same,Nausea (% of patients),[6]; possibly related to treatment,38%
same,Peripheral edema (% of patients),[6]; possibly related to treatment,5%
same,Shivering (% of patients),[6]; possibly related to treatment,2%
same,Sweating increased (% of patients),[6]; possibly related to treatment,2%
same,Thrombocytopenia (% of patients),[6]; possibly related to treatment,33%
same,Vomiting (% of patients),[6]; possibly related to treatment,26%
same,dyspepsia (% of patients),[6]; possibly related to treatment,7%
same,fever (% of patients),[6]; possibly related to treatment,10%
same,Leukopenia (% of patients),[6]; [13],26%
same,Shivering (% of patients),[6]; [13],2%
same,patients reporting an improved global health status,[7]; week 9,50%
same,patients reporting an improved global health status,[7]; week 17,47%
same,median survival time,[1]; gemcitabine alone,5.7 months
same,median maximum plasma concentration,"[4]; gemcitabine alone group, Week 1, n = 5",10600 ng/mL
same,median maximum plasma concentration,"[4]; gemcitabine alone group, Week 2, n = 5",6060 ng/mL
same,median maximum plasma concentration,"[4]; gemcitabine in the Cilengitide and gemcitabine group, Week 1, n = 12",6960 ng/mL
same,median maximum plasma concentration,"[4]; gemcitabine in the Cilengitide and gemcitabine group, Week 2, n = 11",7490 ng/mL
same,Tmax,"[4]; plasma, 1000 mg/m^2",0.5 h

# Reference: article PMC1764757 (BMC Cancer, 2006)
